Assay results from patent US10869863B2, “Multi-arm polymeric targeting anti-cancer conjugate” (priority 2016, dated 2020).

How the values were obtained:
[1] = test system: human colon cancer HT-29 transplanted tumor; test: Inhibitory effect on in vivo tumor growth, human colon cancer HT-29 transplanted tumor model in nude mice; conditions: HT-29 in female BALB/c nude mice; 40 mg·kg^−1 (as content of active agent) IV Q4D×3; experiment ended after 21 days; n=5
Description: HT-29 cells in logarithmic phase of growth were collected. […] Cell suspension was aspirated with a 1 mL syringe, and injected subcutaneously to the anterior right armpit of nude mice. Each animal was inoculated with 100 μL (6×10^6 cells/animal), and the HT-29 transplated tumor model in nude mice was established. Animal status and the condition of tumor growth were observed regularly after inoculation, an electronic vernier caliper was used to measure the tumor diameters, the data was directly input to an Excel spreadsheet, and the tumor volumes were calculated. […] The tumor diameters were measured twice a week after the initiation of the experiment, the tumor volumes were calculated, and the body weights of the animals were weighed and recorded at the same time.
The calculation formula of the tumor volume (TV) was as follows: TV(mm^3)=l×w^2/2
(§1) The first administration was initiated on the day of grouping, the experiment was ended after 21 days, and the volumes of administration were all 10 mL·kg^−1. […]
On the last day of the experiment, the animals were euthanized (CO2) after the body weights were weighed and the tumor diameters were measured. The tumor tissues were excised, weighed and photographed (respectively photographed according to the following combinations), and the tumor weight inhibition rates were calculated. […]

[2] = test system: human breast cancer MDA-MB-231 transplanted tumor; test: Inhibitory effect in human breast cancer MDA-MB-231 xenograft model in nude mice; type: in vivo; conditions: MDA-MB-231 in female BALB/c nude mice; 40 mg·kg^−1 IV Q4D×3; 3 weeks; n=5
Description: MDA-MB-231 cells were cultured in DMEM, which contained 10% fetal bovine serum FBS (GIBCO, USA). The cells were placed in a 37° C. incubator containing 5% CO2 to cultivate.
A subcutaneous tumor xenograft model in nude mice was established by cell inoculation method: tumor cells in logarithmic phase of growth were collected, counted and then resuspended in 1×PBS, and the concentration of the cell suspension was adjusted to 1×10^7/mL. 1 mL syringes (4 gauge needle) were used to inoculate the tumor cells to the right back of the nude mice subcutaneously, 1×10^6/0.1 mL/mice. […]
(§2) The experimental period lasted for 3 weeks, and the body weights and the tumor sizes of the animals were measured twice a week during the experiment. The clinical symptoms were observed and recorded daily. On the last day of the experiment, the animals were sacrificed, the body weights were weighed, and the tumors were excised, weighed and recorded by photographing.
(§3) The calculation formula of the tumor volume (TV) was: TV=a×b^2/2, wherein a and b represented the measured length and width of the tumor, respectively. The calculation formula of the relative tumor volume (RTV) was: RTV=Vt/V0, wherein V0 was the tumor volume measured at the time of grouping and first administration, and Vt was the tumor volume at the time of a measurement.

[3] = test system: human pancreatic cancer MIA Paca-2 transplanted tumor; test: Inhibitory effect in human pancreatic cancer MIA Paca-2 xenograft model in nude mice; type: in vivo; conditions: MIA Paca-2 in female BALB/c-nu/nu nude mice; 40 mg·kg^−1 IV Q4D×3; 3 weeks; n=5
Description: The cells were placed in a 37° C. incubator containing 5% CO2 to cultivate.
A subcutaneous tumor xenograft model in nude mice was established by cell inoculation method: tumor cells in logarithmic phase of growth were collected, counted and then resuspended in 1×PBS, and the concentration of the cell suspension was adjusted to 3×10^7/mL. 1 mL syringes (4 gauge needle) were used to inoculate the tumor cells to the right back of the nude mice subcutaneously, 3×10^6/0.1 mL/mice. […]
as §2, §3

[4] = test system: human gastric cancer NCI-N87 transplanted tumor; test: Inhibitory effect on in vivo tumor growth, human gastric cancer NCI-N87 cell strain transplanted tumor model in nude mice; conditions: 40 mg·kg^−1 (as active agent) IV Q4D × 3, n=5
Description: NCI-N87 cells in logarithmic phase of growth were collected. […] Cell suspension was aspirated with a 1 mL syringe, and injected subcutaneously to the anterior right armpit of the nude mice. Each animal was inoculated with 100 μL (5×10^6 cells/animal), and the NCI-N87 transplanted tumor model in nude mice was established. Animal status and the condition of tumor growth were observed regularly after inoculation, an electronic vernier caliper was used to measure the tumor diameters, the data was directly input to an Excel spreadsheet, and the tumor volumes were calculated. […] The tumor diameters were measured twice a week after the initiation of the experiment, the tumor volumes were calculated, and the body weights of the animals were weighed and recorded at the same time.
The calculation formula of the tumor volume (TV) was as follows: TV(mm^3)=l×w^2/2 wherein l represented the long diameter of a tumor (mm), and w represented the short diameter of a tumor (mm).
as §1
After the experiment was ended, the animals were euthanized (CO2) after the body weights were weighed and the tumor diameters were measured. The tumor tissues were excised and weighed, and the tumor weight inhibition rates were calculated. […]

[5] = test system: orthotopic U87MG brain glioma; type: in vivo, human; conditions: orthotopic U87MG brain glioma in nude mice; 40 mg·kg^−1 (as active agent) IV Q4D × 3; n=5
Description: U87MG cells in logarithmic phase of growth were collected. […] The cells were charged into a 50 mL centrifuge tube after being pipetted with a pipettor to make them evenly dispersed, and the centrifuge tube was placed in an ice box. Cell suspension was aspirated with a 1 mL syringe, 1 μL of human brain glioma cell (U87MG cells) cultured in vitro was inoculated (1×10^5 cells/animal) using microinjection method via the guidance of a stereotactic apparatus for animals, the orthotopic U87MG brain glioma model was established, and animal status was observed periodically after inoculation.
The first administration was initiated on the day of grouping, the experiment was ended after 21 days, and the volumes of administration were all 10 mL·kg^−1. Group 1 was a solvent control group, and was given blank solvent by intravenous injection via tail once every 4 days for a total of 3 times (Q4D×3).
The first administration was initiated on the day of grouping, the experiment was ended after 21 days, and the volumes of administration were all 10 mL·kg^−1.
Groups with 10-hydroxycamptothecin as the active agent (Groups 14 to 18). The first administration was initiated on the day of grouping, the experiment was ended after 21 days, and the volumes of administration were all 10 mL·kg^−1.
Groups with rubitecan as the active agent (Groups 19 to 23). […]
The survival time of the animals were recorded.

CCc1c2c(nc3ccc(OC(=O)N4CCC(N5CCCCC5)CC4)cc13)-c1cc3c(c(=O)n1C2)COC(=O)[C@]3(O)CC [irinotecan]
Relative tumor proliferation rate (% T/C) [1]: 69%
Relative tumor proliferation rate (% T/C) [2]: 44.8%^
Relative tumor proliferation rate (% T/C) [3]: 59.4%
Average relative tumor proliferation rate (% T/C) [4]: 63.2%
Median survival time [5]: 27 days
